According to patent US20160251402A1, “MICROPEPTIDES AND USE OF SAME FOR MODULATING GENE EXPRESSION” (UNIVERSITE PAUL SABATIER TOULOUSE III, priority 2013, published 2016):
Entries after “also recorded” stand apart in the source; their conditions may differ.

Test system: MtmiR171b
Test: Accumulation of pri-/pre-/mature MtmiR171b in transformed tobacco leaves
Type: in vivo, Nicotiana benthamiana
Experimental: In order to determine whether the mechanism of regulation of the microRNAs is conserved in other plant species, the regulation of MtmiR171b by MtmiPEP171b1 was tested in a different cellular model. For this, MtmiR171b and MtmiPEP171b1 were introduced into tobacco leaves.
The accumulation of MtmiR171b was measured in tobacco leaves transformed in order to express MtmiR171b of Medicago truncatula starting from wild-type pri-miRNA capable of producing MtmiPEP171b1, or starting from a mutated version of pri-miRNA incapable of producing MtmiPEP171b1 (in which the start codon ATG of MtmiORF171b has been replaced with ATT) (FIG. 6 and FIG. 20).
The accumulation of pre-MtmiR171b was measured in tobacco leaves transformed in order to express MtmiR171b of Medicago truncatula alone (control), or additionally expressing the wild-type MtmiORF171b of Medicago truncatula (35SmiPEP171b1 ATG), or a mutated version of MtmiORF171b in which the start codon ATG has been replaced with ATT (35SmiPEP171b1 ATT) (FIG. 7 and FIG. 21).
The leaves were watered by spraying with the peptides using peptide solutions at different concentrations (0.01, 0.1, 1 μM), firstly 12 h before sampling and then a second time 30 min before sampling.
The total RNA was extracted from roots of M. truncatula or from tobacco leaves using the extraction kit RNeasy Plant Mini Kit (Qiagen). The reverse transcription was performed using the reverse transcriptase SuperScript II (Invitrogen) starting from 500 ng of total RNA. Three repetitions (n=3) were carried out, each with two technical repetitions. Each experiment was repeated from two to three times. The amplifications by qPCR were carried out using a LightCycler 480 System thermocycler (Roche Diagnostics) by the method described in Lauressergues et al. (Plant J., 72(3): 512-22, 2012).
The DNA fragments of interest were amplified with Pfu polymerase (Promega). The DNA fragments were cloned using the XhoI and NotI enzymes into a pPEX-DsRED plasmid for an overexpression under the control of the constitutive strong promoter 35S, and using the KpnI-NcoI enzymes into a pPEX GUS plasmid for the reporter genes, by the method described in Combier et al. (Genes & Dev, 22: 1549-1559, 2008).
The composite plants having roots transformed with Agrobacterium rhizogenes were obtained by the method described in Boisson-Dernier et al. (Mol Plant-Microbe Interact, 18: 1269-1276, 2005). The transformed roots were verified and selected by observations of DsRED with a binocular fluorescence magnifier. The control roots correspond to roots transformed with A. rhizogenes not containing the pPEX-DsRED vector. Transformation of the tobacco leaves was carried out by the method described in Combier et al. (Genes & Dev, 22: 1549-1559, 2008).

Sequence: MLLHRLSKFCKIERDIVYIS (listed as Medicago truncatula) [MtmiPEP171b1]
- relative expression of MtmiR171b (tobacco co-transformed with empty vector, miPEP vector, ATT-mutated ORF or degenerate ORF): increases the expression of MtmiR171b
- relative expression of pre-MtmiR171b (tobacco expressing MtmiR171b alone vs MtmiR171b and MtmiPEP171b1 (or ATT-mutated miORF)): increases the expression of MtmiR171b
- relative expression of pre-MtmiR171b (tobacco expressing MtmiR171b and MtmiPEP171b1 with or without protein tags (His, HA or GFP)): increases the expression of MtmiR171b, and this effect is independent of the presence of tags
- relative expression of MtmiR171b (tobacco expressing MtmiR171b, peptide 0.1 μM sprayed twice, 12 h and 30 min before sampling): increase in the accumulation of MtmiR171b
- relative expression of MtmiR171b (tobacco expressing MtmiR171b, peptide 0.1 μM sprayed twice, 12 h and 30 min before sampling, listed as miPEP171b1): increases the accumulation
- relative expression of pre-MtmiR171b (tobacco expressing MtmiR171b, treated with 0.1 μM of peptide): increase in the accumulation
- relative expression of pre-MtmiR171b (tobacco expressing MtmiR171b, treated with 0.1 μM of peptide, listed as miPEP171b1): increases the accumulation
- relative expression of MtmiR171b (tobacco expressing pri-MtmiR171b vs mutated pri-MtmiR171b (ATG replaced with ATT, no translation of the miPEP)): marked decrease in the accumulation of miR171b; also recorded: marked decrease in the accumulation of MtmiR171b
- relative expression of MtmiR171b (tobacco expressing pri-MtmiR171b vs mutated pri-MtmiR171b (ATG replaced with ATT, no translation of the miPEP), listed as miPEP171b1): marked decrease in the accumulation of miR171b
